# Measured values published in patent publication US20070249620A1, “Urea Derivative” (priority 2004, published 2007).
# Key:
# mouse DGAT1 = target: T1, mouse DGAT1 (Mus musculus, UniProt Q9Z2A7); assay: DGAT1 inhibitory effect test (microsome fraction, [14C]-oleoyl-CoA, triglyceride radioactivity by TLC); format: biochemical; conditions: 0.5 h; concentration of the test compound 0.1 μg/ml; mouse DGAT1 microsomes, 23° C., 30 minutes; read-out: Inhibitory ratio
# T1 construct: made in house; host or cells: insect cells (High Five, Sf9, Sf21, etc.), baculovirus expression system (Invitrogen)
# T1 sequence (Q9Z2A7 1-498): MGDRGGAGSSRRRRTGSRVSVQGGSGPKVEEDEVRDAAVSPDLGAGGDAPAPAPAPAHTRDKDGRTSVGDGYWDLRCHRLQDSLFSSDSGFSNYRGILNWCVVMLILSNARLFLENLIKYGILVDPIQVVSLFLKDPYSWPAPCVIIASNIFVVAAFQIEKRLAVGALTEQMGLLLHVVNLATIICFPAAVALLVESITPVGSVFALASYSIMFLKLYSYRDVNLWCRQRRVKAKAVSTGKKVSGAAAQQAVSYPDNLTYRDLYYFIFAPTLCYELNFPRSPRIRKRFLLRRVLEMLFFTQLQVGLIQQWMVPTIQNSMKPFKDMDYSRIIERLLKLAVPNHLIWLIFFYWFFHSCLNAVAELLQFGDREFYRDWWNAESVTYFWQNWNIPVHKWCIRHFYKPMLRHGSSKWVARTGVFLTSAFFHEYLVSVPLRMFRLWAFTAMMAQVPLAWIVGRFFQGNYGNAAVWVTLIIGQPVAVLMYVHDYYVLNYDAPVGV
# Description: The cDNA which encodes mouse DGAT1 was cloned from a mouse cDNA library by polymerase chain reaction (hereinafter referred to as “PCR”) and introduced into an insect cell virus vector (baculovirus expression system, Invitrogen). After insect cells (High Five, Sf9, Sf21, etc., Invitrogen) were infected with the virus, the cells were collected in buffer A [0.1M sucrose, 50 mM KCl, 40 mM potassium phosphate (pH 7.4), 30 mM EDTA, 1% Protease inhibitor cocktail (SIGMA, P-8340)] and crushed with a Polytron homogenizer. The supernatant obtained by subjecting the homogenate to low speed centrifugal processing (10,000 ×g, 30 minutes) was further subjected to higher-speed centrifugal processing (100,000 ×g, 60 minutes) and the precipitate was resuspended in buffer A as the microsome fraction and used as DGAT1 enzyme. The DGAT1 enzyme was divided into small volumes and stored at −80° C.
# (2) DGAT1 Inhibitory Effect Test
# The reaction liquid of the following composition [175 mM Tris-HCl (pH 8.0), 8 mM MgCl2, 1 mg/ml BSA, 0.5 mM 1,2-dioleoyl-sn-glycerol (EtOH solution of 10-fold concentration, 10% added), 30 μM[14C]-oleoyl-CoA (about 50 mCi/mmol), 0.5% triton X-100, DGAT1 enzyme (10 μg) obtained in Test Example 1(1), test compound or vehicle (DMSO/MeOH, 7:3 solution, 5% added), total volume 50 μl] was incubated at room temperature (23° C.) for 30 minutes. A reaction terminating solution (70 μl) consisting of isopropanol/1-heptane/water (80:20:2, v/v/v) was added to the reaction solution and stirred, and subsequently stirred with water (30 μl) and 1-heptane (100 μl). The 1-heptane layer (50 μl) was spotted onto a TLC plate and developed with a developing solvent consisting of 1-hexane/diethyl ether/acetic acid (85:15:1, v/v/v). Radioactivity of triglyceride fraction was quantified by BAS2000 bio image analyzer (Fuji Film) and the inhibitory effect of the test compounds was calculated by the following formula through comparison with control. Here, radioactivity at no reaction (0 minutes incubation) was assumed as background. Inhibitory ratio=100−[(Radioactivity when test compound was added)−(Background)]/[(Radioactivity by control)−(Background)]×100
melting point,inhibition at 0.1 µg/mL (mouse DGAT1),Structure (SMILES)
181 to 183 °C,≥ 50%,"COc1ccc(F)cc1NC(=O)Nc1ccc(N2CCN(C(=O)Nc3c(F)cccc3C(F)(F)F)CC2)cc1 [Example 100, 4-{4-[3-(5-fluoro-2-methoxy-phenyl)-ureido]-phenyl}-piperazine-1-carboxylic acid (2-fluoro-6-trifluoromethyl-phenyl)-amide]"
202 to 204 °C,≥ 50%,"CCOc1ccc(C)cc1NC(=O)Nc1ccc(N2CCN(C(=O)Nc3ccc(OC)cc3C)CC2)cc1 [Example 111, 4-{4-[3-(2-ethoxy-5-methyl-phenyl)-ureido]-phenyl}-piperazine-1-carboxylic acid (4-methoxy-2-methyl-phenyl)-amide]"
219 to 221 °C,≥ 50%,"CCOc1ccc(Cl)cc1NC(=O)Nc1ccc(N2CCN(C(=O)Nc3ccccc3C(F)(F)F)CC2)cc1 [Example 102, 4-{4-[3-(5-chloro-2-ethoxy-phenyl)-ureido]-phenyl}-piperazine-1-carboxylic acid (2-trifluoromethyl-phenyl)-amide]"
> 260 °C (dec.),≥ 50%,"Cc1ccccc1NC(=O)Nc1ccc(N2CCN(C(=O)Nc3c(C)cccc3Cl)CC2)cc1 [Example 127, 4-[4-(3-o-tolyl-ureido)-phenyl]-piperazine-1-carboxylic acid (2-chloro-6-methyl-phenyl)-amide]"
188 to 190 °C,≥ 50%,"COc1ccc(C)cc1NC(=O)Nc1ccc(N2CCN(C(=O)Nc3ncccc3C)CC2)c(F)c1 [Example 312, 4-{2-fluoro-4-[3-(2-methoxy-5-methyl-phenyl)-ureido]-phenyl}-piperazine-1-carboxylic acid (3-methyl-pyridin-2-yl)-amide]"
135 to 139 °C,≥ 50%,"COc1cc(NC(=O)Nc2ccc(C3=CCN(C(=O)Nc4ccc(OCCO)cc4Cl)CC3)cc2)cc(OC)c1 [Example 259, 4-{4-[3-(3,5-dimethoxy-phenyl)-ureido]-phenyl}-3,6-dihydro-2H-pyridine-1-carboxylic acid [2-chloro-4-(2-hydroxy-ethoxy)-phenyl]-amide]"
221 to 223 °C,≥ 50%,"COc1ccc(C)cc1NC(=O)Nc1ccc(N2CCN(C(=O)Nc3c(C)cccc3C)CC2)nc1 [Example 138, 4-{5-[3-(2-methoxy-5-methyl-phenyl)-ureido]-pyridin-2-yl}-piperazine-1-carboxylic acid (2,6-dimethyl-phenyl)-amide]"
210 to 213 °C,≥ 50%,"CCOc1ccc(Cl)cc1NC(=O)Nc1ccc(N2CCN(C(=O)Nc3ccc(OC)cc3C)CC2)cc1 [Example 106, 4-{4-[3-(5-chloro-2-ethoxy-phenyl)-ureido]-phenyl}-piperazine-1-carboxylic acid (4-methoxy-2-methyl-phenyl)-amide]"
179 to 180 °C,≥ 50%,"COc1ccccc1NC(=O)Nc1ccc(N2CCN(C(=O)Nc3cc(OCCO)ccc3Cl)CC2)cc1 [Example 232, 4-{4-[3-(2-methoxy-phenyl)-ureido]-phenyl}-piperazine-1-carboxylic acid [2-chloro-5-(2-hydroxy-ethoxy)-phenyl]-amide]"
214 to 215 °C,≥ 50%,"COc1cccc(NC(=O)Nc2ccc(N3CCN(C(=O)Nc4ccc(OCCO)cc4C(F)(F)F)CC3)cc2)c1 [Example 214, 4-{4-[3-(3-methoxy-phenyl)-ureido]-phenyl}-piperazine-1-carboxylic acid [4-(2-hydroxy-ethoxy)-2-trifluoromethyl-phenyl]-amide]"
95 to 98 °C,≥ 50%,"COc1ccc(C)cc1NC(=O)Nc1ccc2c(c1)CCN(C(=O)Oc1ccc(CCO)cc1Cl)C2 [Example 396, 6-[3-(2-methoxy-5-methyl-phenyl)-ureido]-3,4-dihydro-1H-isoquinoline-2-carboxylic acid 2-chloro-4-(2-hydroxy-ethyl)-phenyl ester]"
217 to 218 °C,≥ 50%,"COc1ccc(F)cc1NC(=O)Nc1ccc(N2CCN(C(=O)Nc3ccc(C)cc3Cl)CC2)nc1 [Example 154, 4-{5-[3-(5-fluoro-2-methoxy-phenyl)-ureido]-pyridin-2-yl}-piperazine-1-carboxylic acid (2-chloro-4-methyl-phenyl)-amide]"
105 to 108 °C,≥ 50%,"COc1cc(NC(=O)Nc2ccc(C3CCN(C(=O)Nc4ccc(OCC(O)CO)cc4Cl)CC3)cc2)cc(OC)c1 (stereo not drawn) [Example 289, 4-{4-[3-(3,5-dimethoxy-phenyl)-ureido]-phenyl}-piperidine-1-carboxylic acid [2-chloro-4-(2,3-dihydroxy-propoxy)-phenyl]-amide]"
173 to 178 °C,≥ 50%,"O=C(Nc1ccc(C2=CCN(C(=O)Nc3ccc(OCCO)cc3Cl)CC2)cc1)Nc1ccccc1F [Example 260, 4-{4-[3-(2-fluoro-phenyl)-ureido]-phenyl}-3,6-dihydro-2H-pyridine-1-carboxylic acid [2-chloro-4-(2-hydroxy-ethoxy)-phenyl]-amide]"
206 to 208 °C,≥ 50%,"CCOc1ccccc1NC(=O)Nc1ccc(N2CCN(C(=O)Nc3ccccc3C)CC2)cc1 [Example 81, 4-{4-[3-(2-ethoxy-phenyl)-ureido]-phenyl}-piperazine-1-carboxylic acid o-tolylamide]"
228 °C,≥ 50%,"COc1ccc(F)cc1NC(=O)Nc1ccc(N2CCN(C(=O)Nc3c(Cl)cccc3Cl)CC2)nc1 [Example 151, 4-{5-[3-(5-fluoro-2-methoxy-phenyl)-ureido]-pyridin-2-yl}-piperazine-1-carboxylic acid (2,6-dichloro-phenyl)-amide]"
135 to 138 °C,≥ 50%,"COc1cccc(NC(=O)Nc2ccc(N3CCN(C(=O)Nc4ccc(OCCO)cc4C(F)(F)F)CC3)cc2)c1OC [Example 247, 4-{4-[3-(2,3-dimethoxy-phenyl)-ureido]-phenyl}-piperazine-1-carboxylic acid [4-(2-hydroxy-ethoxy)-2-trifluoromethyl-phenyl]-amide]"
186 to 187 °C,≥ 50%,"COc1ccc(C)cc1NC(=O)Nc1ccc(N2CCN(C(=O)Nc3ccc(F)cc3C(F)(F)F)CC2)nc1 [Example 155, 4-{5-[3-(2-methoxy-5-methyl-phenyl)-ureido]-pyridin-2-yl}-piperazine-1-carboxylic acid (4-fluoro-2-trifluoromethyl-phenyl)-amide]"
> 240 °C (dec.),≥ 50%,"COc1ccc(C)cc1NC(=O)Nc1ccc(N2CCCN(C(=O)Nc3c(C)cccc3Cl)CC2)cc1 [Example 200, 4-{4-[3-(2-methoxy-5-methyl-phenyl)-ureido]-phenyl}-perhydro-1,4-diazepine-1-carboxylic acid (2-chloro-6-methyl-phenyl)-amide]"
121 to 124 °C,≥ 50%,"COc1ccc(C)cc1NC(=O)Nc1ccc(N2CCN(C(=O)Nc3cc(OCCO)ccc3Cl)CC2)cc1 [Example 231, 4-{4-[3-(2-methoxy-5-methyl-phenyl)-ureido]-phenyl}-piperazine-1-carboxylic acid [2-chloro-5-(2-hydroxy-ethoxy)-phenyl]-amide]"
191 to 192 °C,≥ 50%,"COc1cc(NC(=O)Nc2ccc(N3CCN(C(=O)Nc4cc(OCCO)ccc4Cl)CC3)cc2)cc(OC)c1 [Example 234, 4-{4-[3-(3,5-dimethoxy-phenyl)-ureido]-phenyl}-piperazine-1-carboxylic acid [2-chloro-5-(2-hydroxy-ethoxy)-phenyl]-amide]"
